Measurements: PubChem BioAssay (NCI)
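Each compound was tested at five concentrations against cells in 96-well plates for 48 hours. At the GI50, growth is halved. At the TGI there is no net growth.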

How the values were obtained:
Assay in all cases: NCI anticancer screen, dose series, 48 h
SF-295 CNS = tested on: SF-295 CNS
SNB-75 CNS = tested on: SNB-75 CNS
NCI-H522 lung = tested on: NCI-H522 lung
HCC-2998 colon = tested on: HCC-2998 colon
UACC-257 melanoma = tested on: UACC-257 melanoma
A549 NSCLC = tested on: A549 NSCLC
NCI-H226 lung = tested on: NCI-H226 lung
SF-268 CNS = tested on: SF-268 CNS
HL-60(TB) leukemia = tested on: HL-60(TB) leukemia
OVCAR-5 ovarian = tested on: OVCAR-5 ovarian

Structure (SMILES)	TGI (SF-295 CNS) [µM]	TGI (SNB-75 CNS) [µM]	TGI (NCI-H522 lung) [µM]	TGI (HCC-2998 colon) [µM]	TGI (UACC-257 melanoma) [µM]	TGI (A549 NSCLC) [µM]	TGI (NCI-H226 lung) [µM]	TGI (SF-268 CNS) [µM]	TGI (HL-60(TB) leukemia) [µM]	TGI (OVCAR-5 ovarian) [µM]	GI50 (SF-295 CNS) [µM]	GI50 (SNB-75 CNS) [µM]	GI50 (NCI-H522 lung) [µM]	GI50 (HCC-2998 colon) [µM]	GI50 (UACC-257 melanoma) [µM]	GI50 (OVCAR-5 ovarian) [µM]	GI50 (A549 NSCLC) [µM]	GI50 (SF-268 CNS) [µM]	GI50 (HL-60(TB) leukemia) [µM]	GI50 (NCI-H226 lung) [µM]
COc1cccc(N2C(=O)[C@H]3CC(C)c4c([nH]c5ccccc45)[C@H]3C2=O)c1 (stereo partly drawn)	67.6	42.1	> 100	> 100	> 100	> 100	> 100	> 100	> 100	–	–	–	–	–	–	–	–	–	–	–
COC(C(O)c1ccc2c(c1)OCO2)P(=O)(c1ccccc1)c1ccccc1 (stereo not drawn)	–	> 100	> 100	–	> 100	–	> 100	> 100	> 100	> 100	–	–	–	–	–	–	–	–	–	–
CSc1nc2cc(S(=O)(=O)N3CCCCC3)ccc2s1	> 100	> 100	> 100	–	> 100	> 100	> 100	> 100	> 100	> 100	–	–	–	–	–	–	–	–	–	–
CC1=N/C(=C\c2cccc([N+](=O)[O-])c2)C(=O)O1	> 100	91	> 100	> 100	> 100	> 100	–	> 100	> 100	> 100	–	–	–	–	–	–	–	–	–	–
C=C1CC[C@@H]2[C@](C)(COC(C)=O)[C@H](OC(C)=O)CC[C@@]2(C)[C@@H]1CC(Nc1ccc(S(=O)(=O)Nc2ncccn2)cc1)C1=CCOC1=O (stereo partly drawn)	18.7	3.23	2.07	3.81	6.07	9.97	–	4.16	3.64	3.85	6.07	1.27	0.498	2.1	2.34	1.98	3.18	1.93	1.3	–
COc1cc2c(c(OC)c1)C1(CC(CC#N)C2)SCCS1 (stereo not drawn)	–	> 100	4.69	> 100	> 100	> 100	> 100	> 100	> 100	–	–	–	–	–	–	–	–	–	–	–
COc1ccc2c3c(coc13)C(CCC(=O)O)CC2 (stereo not drawn)	> 100	> 100	–	> 100	> 100	> 100	–	–	–	–	–	–	–	–	–	–	–	–	–	–
COc1ccc(CNc2nc3cc(C(F)(F)F)ccc3nc2C)cc1OC	> 100	61.4	92.7	58.9	42.6	> 100	–	> 100	50.6	> 100	–	–	–	–	–	–	–	–	–	–
CC[CH2][Sn]([Cl])([Cl])[CH2]CC.Oc1ccccc1C=NCCN=Cc1ccccc1O	32.7	16.1	–	23.8	17.8	41	12.6	15.5	–	26	14.7	3.34	–	11.1	3.61	12.9	19.2	3.63	–	3.13
CCCCN1CSC(=S)N(Cc2ccccc2)C1	> 100	> 100	> 71.8	–	60.2	> 100	> 100	> 100	19.4	> 100	–	–	–	–	–	–	–	–	–	–
Cc1ccc(NC(=O)NCCCOc2ccc(N3C(N)=NC(N)=NC3(C)C)cc2Cl)cc1S(=O)(=O)F	> 100	51.4	–	> 100	> 100	> 100	> 100	> 100	> 100	> 100	26.5	8.62	–	21.5	10.9	6.44	2.83	0.916	0.775	58.1
CN1C(=O)c2ccccc2NC(=O)C12O[C@@H]2c1cccc(O)c1 (stereo partly drawn)	> 100	> 100	> 100	> 100	> 100	> 100	–	> 100	> 100	> 100	–	–	–	–	–	–	–	–	–	–
CC(C)CCCC(=O)CCCCCCC(=O)CCN(O)C(=O)C(N)CO (stereo not drawn)	36.3	31.1	–	–	35.1	–	35.6	60	60.2	50.6	–	–	–	–	–	–	–	–	–	–
CC(C)c1cc2c(O)c(c1)Cc1cc(C(C)C)cc(c1O)Cc1cc(C(C)C)cc(c1O)Cc1cc(C(C)C)cc(c1O)C2	> 100	> 100	> 100	–	> 100	> 100	> 100	> 100	> 100	> 100	–	–	–	–	–	–	–	–	–	–
CNc1nc(N)c(N=O)c(Nc2ccc(Br)cc2)n1	> 100	> 100	> 100	> 100	> 100	> 100	–	> 100	> 100	> 100	–	–	–	–	–	–	–	–	–	–
OC/C=C(\I)CCCOCOCc1ccccc1	> 100	> 100	80.2	> 100	–	> 100	> 100	> 100	35.8	> 100	–	–	–	–	–	–	–	–	–	–
N.N.O=C([O-])P(=O)([O-])[O-].[Na+].[Pt+4]	> 100	> 100	> 100	> 100	> 100	> 100	–	> 100	> 100	–	> 100	> 100	> 100	> 100	> 100	–	> 100	> 100	> 100	–
COC(=O)c1cc(C)c(C)c2c1NC(=O)CNC2=O	> 100	> 100	–	> 100	> 100	> 100	–	–	> 100	–	–	–	–	–	–	–	–	–	–	–
c1cc[c]([Pb]([c]2ccccc2)[c]2ccccc2)cc1	58.3	45	15.1	37.3	59.1	> 100	–	50.7	> 100	34.9	21.9	6.8	2.53	14.8	19	11	60	7.34	41.9	–
CC(=O)N1C/C(=C\c2ccc(N(C)C)cc2)C(=O)/C(=C/c2ccc(N(C)C)cc2)C1	> 100	49.4	–	> 100	> 100	> 100	> 100	> 100	> 100	> 100	–	–	–	–	–	–	–	–	–	–
CCCCOC(=O)NC(=O)c1cn(C2CCCCC2)c(=O)[nH]c1=O	> 100	–	> 100	> 100	> 100	> 100	46.3	> 100	> 100	> 100	–	–	–	–	–	–	–	–	–	–
